Results taken from ChEMBL document CHEMBL2331447, “Nocardiamides A and B, two cyclohexapeptides from the marine-derived actinomycete Nocardiopsis sp. CNX037” (J Nat Prod, 2013).
Active and inactive are the calls of the source.

How the values were obtained:
Type in all cases: functional, organism-based
[1] = system: Micrococcus luteus; test: Antimicrobial activity against Micrococcus luteus SCSIO ML01 assessed as inhibition of visible growth measured after 16 to 20 hrs by broth microdilution method
[2] = system: Bacillus thuringiensis; test: Antimicrobial activity against Bacillus thuringiensis SCSIO BT01 assessed as inhibition of visible growth measured after 16 to 20 hrs by broth microdilution method
[3] = system: Candida albicans; test: Antimicrobial activity against Candida albicans ATCC 10231 assessed as inhibition of visible growth measured after 16 to 20 hrs by broth microdilution method
[4] = system: Enterococcus faecalis; test: Antimicrobial activity against Enterococcus faecalis ATCC 29212 assessed as inhibition of visible growth measured after 16 to 20 hrs by broth microdilution method
[5] = system: Escherichia coli; test: Antimicrobial activity against Escherichia coli ATCC 25922 assessed as inhibition of visible growth measured after 16 to 20 hrs by broth microdilution method
[6] = system: Staphylococcus aureus; test: Antimicrobial activity against Staphylococcus aureus ATCC 29213 assessed as inhibition of visible growth measured after 16 to 20 hrs by broth microdilution method
[7] = system: Bacillus subtilis; test: Antimicrobial activity against Bacillus subtilis SCSIO BS01 assessed as inhibition of visible growth measured after 16 to 20 hrs by broth microdilution method

Measured: Activity

CC(C)C[C@H]1NC(=O)[C@@H](C(C)C)NC(=O)[C@H](C(C)C)NC(=O)[C@@H](C(C)C)NC(=O)[C@H](Cc2ccc(O)cc2)NC(=O)[C@H](C(C)C)NC1=O
inactive: [1] | [2] | [3] | [4] | [5] | [6] | [7]

CC[C@H](C)[C@@H]1NC(=O)[C@@H](CC(C)C)NC(=O)[C@@H](C(C)C)NC(=O)[C@H](C(C)C)NC(=O)[C@@H](C(C)C)NC(=O)[C@H](Cc2ccc(O)cc2)NC1=O
inactive: [1] | [2] | [3] | [4] | [5] | [6] | [7]

CC[C@H](C)[C@H](NC(=O)[C@@H](CC(C)C)NC(=O)[C@H](NC(=O)[C@@H](NC(=O)[C@H](N)C(C)C)C(C)C)C(C)C)C(=O)N[C@@H](Cc1ccc(O)cc1)C(=O)O
inactive: [1] | [2] | [3] | [4] | [5] | [6] | [7]

CC(C)C[C@@H](NC(=O)[C@H](NC(=O)[C@@H](NC(=O)[C@H](N)C(C)C)C(C)C)C(C)C)C(=O)N[C@H](C(=O)N[C@@H](Cc1ccc(O)cc1)C(=O)O)C(C)C
inactive: [1] | [2] | [3] | [4] | [5] | [6] | [7]
